According to patent US11834480B2 (priority 2020, dated 2023):
pIC50, pKd: −log10 of the molar value. Square brackets hold non-standard residues; d marks the D form.

Legend:
[1] = target: D-form of SARS-CoV-2 HR1 (SARS CoV-2 D-HR1-biotin) (Severe acute respiratory syndrome coronavirus 2, UniProt P0DTC2); type: binding
[2] = target: L-form of SARS-CoV-2 HR1 (SARS CoV-2 HR1-biotin) (Severe acute respiratory syndrome coronavirus 2, UniProt P0DTC2); test: biochemical; type: binding
[3] = tested on: SARS CoV-2 pseudotyped lentivirus; type: cell-based; conditions: read-out: observed IC50, inhibition of pseudotyped virus infection

Substance	affinity for SARS CoV-2 D-HR1-biotin compared with parental SEQ ID NO: 11 [1]	pKd [2]	pIC50 [3]
ATVKFTYQGEEKQVDISKIKYVLRIGQAIWFRYDEGGGAIGNGWVSEEDAPKELLQMLEKR [SEQ ID NO:51]	higher affinity	–	–
ATVKFTYQGEEKQVDISKIKYVLRIGQAIWFRYDEGGGAIGNGWVSEEDAPKELLQMLGKR [SEQ ID NO:53]	higher affinity	–	–
[dA][dT][dV][dK][dF][dT][dY][dQ]G[dE][dE][dK][dQ][dV][dD][dI][dS][dK][dI][dK][dY][dV][dL][dR][dI]G[dQ][dA][dI][dW][dF][dR][dY][dD][dE]GGG[dA][dI]G[dN]G[dW][dV][dS][dE][dK][dD][dA][dP][dK][dE][dL][dL][dQ][dM][dL][dE][dK][dQ] [SEQ ID NO:12]	–	6.09	5.66
